Experimental data reported in patent US20250312469A1 (CANGET BIOTEKPHARMA, priority 2024, published 2025).

Experiments:
[1] = test system: Agrin and its downstream targets; experiment: Western blots of Agrin and downstream targets in pancreatic cancer cell lines; type: cell-based, human
Protocol: For frozen prostate cancer tissue specimens and their adjacent non-tumor tissues (if any) obtained from Roswell Park pathology network, 30-50 mg of each tissue in a 1.5 Eppendorf tube containing 500 μL of 2×SDS lysis buffer containing Tris pH 6.8+4% SDS+10% Glycerol were homogenized through ultrasound treatment for 10-15 second per time with 3-6 times until tumor tissue was lysed. After all tissues were processed, 1.5 mL tubes were centrifuged at 13,000 rom in a microcentrifuge for 1-2 min and then the supernatant in each tube was transferred into a new 1.5 mL tube for protein concentration measurement (refer to the section of “Studies with Human patient tumor specimens” for more information). Twenty to fifty μg total protein from each sample (cell lysis or tumor tissue lysis) were heated at 95° C. for 5 minutes after mixing with equal volumes of 2× SDS loading buffer. […] The membrane was then blocked in 5% skim milk in TBS-T buffer (20 mM Tris/HCl pH 7.5, 0.137 M NaCl, and 0.1% Tween 20) at room temperature for 2-3h. […] Proteins of interest were detected using Western Lightning ECL-Plus (Perkin Elmer, Waltham, MA) and visualized by various times (3-120 seconds) of exposure. Actin, tubulin and/or GAPDH were detected as the internal control to normalize total protein loading for each sample.

in vitro = conditions: for microsomal CLint at 0.5 μM / half-life at 0.5 μM: both; for microsomal CLint at 0.5 μM: s9, CLint (intrinsic clearance); for microsomal CLint at 0.5 μM / half-life at 0.5 μM / % Remaining of Initial (n = 1): human liver S9 fraction; for half-life at 0.5 μM: s9, Half-life (min)
Plasma stability = type: in vitro ADME, human
Protocol: Both matrices were adjusted to pH 7.4 prior to initiating the experiments. A DMSO stock as first prepared for the test article. […] The vials were kept in a benchtop Thermomixer for the duration of the experiment. Aliquots (100 μL) were taken at each time point (0, 15, 30, 60, and 120 minutes) and added to 96-well plates which had been pre-filled with 300 μL of acetonitrile (ACN). Samples were stored at 4° C. until the end of the experiment. […] Analytical conditions are outlined in Appendix 1.

P-gp = P-gp (Homo sapiens, UniProt P08183)
Chain of P-gp (P08183 whole entry): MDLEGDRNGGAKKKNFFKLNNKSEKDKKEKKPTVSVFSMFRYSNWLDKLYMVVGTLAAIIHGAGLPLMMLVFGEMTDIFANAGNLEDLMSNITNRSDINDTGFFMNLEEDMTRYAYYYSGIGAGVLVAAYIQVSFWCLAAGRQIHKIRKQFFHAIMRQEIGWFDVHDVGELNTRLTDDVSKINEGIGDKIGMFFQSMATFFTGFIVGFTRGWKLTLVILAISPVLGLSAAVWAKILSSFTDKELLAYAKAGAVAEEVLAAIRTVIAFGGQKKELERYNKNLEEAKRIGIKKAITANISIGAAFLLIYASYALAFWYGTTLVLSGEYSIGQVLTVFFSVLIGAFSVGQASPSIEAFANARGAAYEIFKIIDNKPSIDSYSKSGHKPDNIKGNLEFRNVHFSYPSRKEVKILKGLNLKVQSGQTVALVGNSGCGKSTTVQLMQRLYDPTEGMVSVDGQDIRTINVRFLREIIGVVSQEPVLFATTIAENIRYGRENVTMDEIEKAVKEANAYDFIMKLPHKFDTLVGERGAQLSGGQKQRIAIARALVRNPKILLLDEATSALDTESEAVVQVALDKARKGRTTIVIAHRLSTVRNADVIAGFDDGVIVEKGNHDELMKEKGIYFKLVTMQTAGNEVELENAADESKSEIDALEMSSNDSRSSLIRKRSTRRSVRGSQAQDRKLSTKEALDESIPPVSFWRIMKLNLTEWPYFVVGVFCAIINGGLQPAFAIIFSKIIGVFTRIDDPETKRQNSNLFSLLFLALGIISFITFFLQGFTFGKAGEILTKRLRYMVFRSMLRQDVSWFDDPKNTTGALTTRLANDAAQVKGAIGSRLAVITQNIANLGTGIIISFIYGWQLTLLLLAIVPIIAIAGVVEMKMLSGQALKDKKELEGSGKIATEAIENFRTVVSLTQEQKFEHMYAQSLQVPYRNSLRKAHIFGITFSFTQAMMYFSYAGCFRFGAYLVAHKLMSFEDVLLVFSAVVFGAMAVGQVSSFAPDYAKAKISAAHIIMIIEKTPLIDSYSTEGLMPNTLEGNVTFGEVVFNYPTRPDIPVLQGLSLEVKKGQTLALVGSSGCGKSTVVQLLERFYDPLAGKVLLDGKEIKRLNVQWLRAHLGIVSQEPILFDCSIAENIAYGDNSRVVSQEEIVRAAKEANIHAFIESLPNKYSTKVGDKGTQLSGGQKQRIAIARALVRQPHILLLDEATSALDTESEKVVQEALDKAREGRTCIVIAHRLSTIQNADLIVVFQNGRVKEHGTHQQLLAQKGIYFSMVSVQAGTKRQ

CCC1(O)C(=O)OCc2c1cc1n(c2=O)Cc2cc3cc4c(cc3nc2-1)OCO4 (stereo not drawn) [FL118]
DDX5, Agrin, YAP1, Integrin expression and FAK phosphorylation ([1]; Mia Paca-2, Panc-1, BxPC-3, 10, 100, 500 nM): inhibits the expression of DDX5, Agrin, YAP1 and Integrin as well as the FAK phosphorylation status
Agrin and YAP1 proteins ([1]; Panc-1 cells): inhibits Agrin and YAP1 proteins
microsomal CLint at 0.5 μM (in vitro; human, calculated (in parentheses)): 11.1 µL/min/mg
microsomal CLint at 0.5 μM (in vitro; human, bound): < 11.6 µL/min/mg
half-life at 0.5 μM (in vitro; human, calculated (in parentheses), calculated half-life longer than the experiment): 1.05 h
half-life at 0.5 μM (in vitro; human, expressed as > the longest incubation time): > 1 h
% Remaining of Initial (n = 1) (in vitro; 0 min): 100%
% Remaining of Initial (n = 1) (in vitro; 10 min): 82%
% Remaining of Initial (n = 1) (in vitro; 20 min): 73%
% Remaining of Initial (n = 1) (in vitro; 30 min): 69%
% Remaining of Initial (n = 1) (in vitro; 60 min): 52%
half-life (in vitro; human, s9): long half-life
half-life (Plasma stability; 0.5 μM): long half-life
Percent Remaining (Plasma stability; Human Plasma, 0 min): 100%
Percent Remaining (Plasma stability; Human Plasma, 15 min): 111%
Percent Remaining (Plasma stability; Human Plasma, 30 min): 110%
Percent Remaining (Plasma stability; Human Plasma, 60 min): 94%
Percent Remaining (Plasma stability; Human Plasma, 120 min): 26%
half-life at 0.5 μM (Plasma stability; both sexes, plasma (sodium heparin), pH 7.4, Human Plasma): 1.53 h
inhibition of P-gp transport of digoxin (P-gp; 1.0 μM FL118): does not inhibit digoxin acting as a BCRP substrate
P-gp Inhibition Potential Classification (P-gp; Caco-2, digoxin as substrate, 1.0 μM FL118 or 1.0 μM Valspodar): Negative (without inhibitor, and reduced by <50 with inhibitor: Negative)
